Results: patent publication US8106055B2, “Substituted amide compounds” (Gruenenthal GmbH, priority 2007, dated 2012)

Assays:
[1] = target: T1, human bradykinin 1 receptor (B1R) (Homo sapiens, UniProt P46663); experiment: Functional investigation on the human bradykinin 1 receptor (B1R), Ca2+ FLIPR assay in CHO K1 hB1R cells; assay type: cell-based; details: B1R antagonism human; test substance 10 μM; Ca2+ FLIPR, CHO K1 hB1R cells
T1 construct: expressed in transfected cells; host or cells: CHO K1 cells
T1 sequence (P46663 1-353): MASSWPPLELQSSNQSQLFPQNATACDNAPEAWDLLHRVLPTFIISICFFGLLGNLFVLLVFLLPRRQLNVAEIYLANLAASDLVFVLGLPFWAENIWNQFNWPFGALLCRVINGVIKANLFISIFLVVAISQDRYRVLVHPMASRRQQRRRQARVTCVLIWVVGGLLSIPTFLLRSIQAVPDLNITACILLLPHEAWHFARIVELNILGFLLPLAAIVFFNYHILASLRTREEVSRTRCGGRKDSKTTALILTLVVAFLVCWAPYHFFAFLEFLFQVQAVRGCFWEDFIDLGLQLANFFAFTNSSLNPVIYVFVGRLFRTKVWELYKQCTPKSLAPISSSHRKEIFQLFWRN
In short: (§1)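 Peak Ca2+-dependent fluorescence in B1R-transfected CHO K1 cells measures antagonism of an EC80 agonist challenge given 10-20 min after compound. Agonist is Lys-Des-Arg9-bradykinin for human, Des-Arg9-bradykinin for rat receptor.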

[2] = target: T2, bradykinin 1 receptor (B1R) of the rat (Rattus norvegicus, UniProt P97583); experiment: Functional investigation on the rat bradykinin 1 receptor (B1R), Ca2+ FLIPR assay in CHO K1 rB1R cells; assay type: cell-based; details: B1R antagonism rat; test substance 10 μM; Ca2+ FLIPR, CHO K1 rB1R cells
T2 construct: expressed in transfected cells; host or cells: CHO K1 cells
T2 sequence (P97583 1-337): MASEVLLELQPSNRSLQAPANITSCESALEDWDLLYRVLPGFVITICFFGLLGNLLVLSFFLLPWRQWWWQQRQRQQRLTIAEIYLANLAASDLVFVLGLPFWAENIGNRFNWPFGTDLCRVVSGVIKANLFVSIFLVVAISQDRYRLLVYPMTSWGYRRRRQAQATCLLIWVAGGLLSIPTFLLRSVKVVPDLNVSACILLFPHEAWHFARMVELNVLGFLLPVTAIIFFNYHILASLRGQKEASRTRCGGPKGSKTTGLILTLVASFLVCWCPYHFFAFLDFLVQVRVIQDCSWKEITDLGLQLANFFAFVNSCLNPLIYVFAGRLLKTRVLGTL
In short: as §1

| Structure (SMILES) | B1R Ant. h [10 μM] % Inhibition [1] | B1R Ant. r [10 μM] % Inhibition [2] |
| --- | --- | --- |
| COc1ccc(S(=O)(=O)N2CCCCC2COCC(=O)NC2CCC(C(c3cccc(F)c3)N(C)C)CC2)c(OC)c1 (stereo not shown) [Example 322] | −14% | 6% |
| COc1ccc(S(=O)(=O)N2CCC(OCC(=O)NC3CCC(C(c4cccc(F)c4)N(C)C)CC3)C2)cc1OC (stereo not shown) [Example 323] | −14% | 23% |
| COc1ccc(S(=O)(=O)N(C)CCOCC(=O)NCC2CCC(C(c3ccc(Cl)cc3)N(C)C)CC2)cc1 (stereo not shown) [Example 324] | 42% | 48% |
| CN(C)C(c1cccc(F)c1)C1CCC(CCNC(=O)COCCN2CCN(S(=O)(=O)c3ccccc3)CC2)CC1 (stereo not shown) [Example 325] | 45% | 6% |
| CN(C)C(c1cccc(F)c1)C1CCC(CCNC(=O)COC2CCCN(S(=O)(=O)c3ccccc3)C2)CC1 (stereo not shown) [Example 326] | −5% | −6% |
| CCN(CCOCC(=O)NCC1CCC(C(c2ccc(F)cc2)N(C)C)CC1)S(=O)(=O)c1c(C)cc(OC)c(C)c1C (stereo not shown) [Example 327] | 101% | 68% |
| COc1ccc(S(=O)(=O)N2CCCCC2COCC(=O)NCC2CCC(C(c3cccc(F)c3)N(C)C)CC2)cc1OC (stereo not shown) [Example 329] | −17% | 9% |
| CN(C)C(c1ccc(F)cc1)C1CCC(NC(=O)COC2CCN(S(=O)(=O)c3cccc(C(F)(F)F)c3)C2)CC1 (stereo not shown) [Example 330] | −6% | 16% |
| CN(C)C(c1ccc(Cl)cc1)C1CCC(CNC(=O)COC2CCN(S(=O)(=O)c3cccc(C(F)(F)F)c3)C2)CC1 (stereo not shown) [Example 331] | 30% | 44% |
| Cc1cc(C)c(S(=O)(=O)N2CCC(OCC(=O)NC3CCC(C(c4ccc(F)cc4)N(C)C)CC3)C2)c(C)c1 (stereo not shown) [Example 332] | 57% | 32% |
| CN(C)C(c1cccc(F)c1)C1CCC(CNC(=O)COCCC2CCN(S(=O)(=O)c3ccccc3)CC2)CC1 (stereo not shown) [Example 333] | 17% | 15% |
| CN(C)C(c1ccc(F)cc1)C1CCC(CNC(=O)COCCN(C)S(=O)(=O)c2c(Cl)cccc2Cl)CC1 (stereo not shown) [Example 334] | 103% | 83% |
| CN(C)C(c1cccc(F)c1)C1CCC(NC(=O)COC2CCN(S(=O)(=O)c3ccccc3)CC2)CC1 (stereo not shown) [Example 335] | −8% | 2% |
| CN(C)C(c1ccc(F)cc1)C1CCC(NC(=O)COCCN(Cc2ccccc2)S(=O)(=O)c2ccccc2)CC1 (stereo not shown) [Example 336] | 20% | 8% |
| CN(C)C(c1ccc(F)cc1)C1CCC(CCNC(=O)COCC2CCCCN2S(=O)(=O)c2ccc(Cl)c(Cl)c2)CC1 (stereo not shown) [Example 337] | 51% | −23% |
| COc1ccc(S(=O)(=O)N2CCC(OCC(=O)NCCC3CCC(C(c4ccc(Cl)cc4)N(C)C)CC3)C2)cc1OC (stereo not shown) [Example 338] | −3% | 27% |
| COc1ccc(S(=O)(=O)N(C)CCOCC(=O)NCCC2CCC(C(c3ccc(Cl)cc3)N(C)C)CC2)cc1OC (stereo not shown) [Example 339] | −9% | 31% |
| COc1ccc(S(=O)(=O)N(C)CCOCC(=O)NCC2CCC(C(c3cccc(F)c3)N(C)C)CC2)cc1 (stereo not shown) [Example 340] | 39% | 23% |
| CN(C)C(c1cccs1)C1CCC(NC(=O)COCCN2CCN(S(=O)(=O)c3ccccc3)CC2)CC1 (stereo not shown) [Example 341] | −1% | 18% |

| Structure (SMILES) | B1R Ant. h [10 μM] % Inhibition [1] | B1R Ant. r [10 μM] % Inhibition [2] |
| --- | --- | --- |
| CN(C)C(c1ccc(F)cc1)C1CCC(CNC(=O)COCCN(Cc2ccccc2)S(=O)(=O)c2ccccc2)CC1 (stereo not shown) [Example 342] | 28% | −20% |
| CN(C)C(c1ccc(Cl)cc1)C1CCC(CNC(=O)COCCN(Cc2ccccc2)S(=O)(=O)c2ccccc2)CC1 (stereo not shown) [Example 343] | 12% | −15% |
| CN(C)C(c1ccc(F)cc1)C1CCC(NC(=O)COCC2CCCN2S(=O)(=O)c2ccc(Cl)c(Cl)c2)CC1 (stereo not shown) [Example 344] | 65% | 12% |
| COc1ccc(S(=O)(=O)N2CCCCC2COCC(=O)NCC2CCC(C(c3ccc(F)cc3)N(C)C)CC2)cc1 (stereo not shown) [Example 345] | 76% | 77% |
| COc1ccc(S(=O)(=O)N2CCCC2COCC(=O)NCCC2CCC(C(c3ccc(Cl)cc3)N(C)C)CC2)cc1 (stereo not shown) [Example 346] | 52% | 45% |
| CN(C)C(c1ccc(Cl)cc1)C1CCC(CCNC(=O)COCCN(C)S(=O)(=O)c2ccc(Cl)cc2)CC1 (stereo not shown) [Example 347] | 85% | 56% |
| COc1cc(C)c(S(=O)(=O)N(C)CCOCC(=O)NCC2CCC(C(c3ccc(Cl)cc3)N(C)C)CC2)c(C)c1 (stereo not shown) [Example 348] | 103% | 99% |
| COc1ccc(S(=O)(=O)N2CCCCC2COCC(=O)NCCC2CCC(C(c3ccc(F)cc3)N(C)C)CC2)cc1 (stereo not shown) [Example 349] | 68% | 77% |
| COc1ccc(S(=O)(=O)N2CCCCC2CCOCC(=O)NCC2CCC(C(c3ccc(F)cc3)N(C)C)CC2)cc1 (stereo not shown) [Example 350] | 57% | 35% |
| COc1ccc(S(=O)(=O)N2CCCC2COCC(=O)NCC2CCC(C(c3ccc(Cl)cc3)N(C)C)CC2)cc1 (stereo not shown) [Example 351] | 52% | 34% |
| COc1ccc(S(=O)(=O)N2CCCCC2COCC(=O)NC2CCC(C(c3cccc(F)c3)N(C)C)CC2)cc1OC (stereo not shown) [Example 352] | −18% | −13% |
| COc1cc(C)c(S(=O)(=O)N(C)CCOCC(=O)NCCC2CCC(C(c3ccc(F)cc3)N(C)C)CC2)c(C)c1C (stereo not shown) [Example 354] | 104% | 44% |
| CN(C)C(c1cccc(F)c1)C1CCC(CNC(=O)COC2CCN(S(=O)(=O)c3ccccc3)C2)CC1 (stereo not shown) [Example 355] | −7% | 28% |
| CN(C)C(c1ccc(F)cc1)C1CCC(NC(=O)COCCN(C)S(=O)(=O)c2ccc(Cl)cc2Cl)CC1 (stereo not shown) [Example 356] | 92% | 43% |
| CN(C)C(c1ccc(F)cc1)C1CCC(NC(=O)COCCN(C)S(=O)(=O)c2ccc(F)cc2)CC1 (stereo not shown) [Example 357] | 7% | 27% |
| COc1cc(C)c(S(=O)(=O)N(CCOCC(=O)NCCC2CCC(C(c3cccc(F)c3)N(C)C)CC2)Cc2ccccc2)c(C)c1 (stereo not shown) [Example 358] | 66% | 27% |
| CN(C)C(c1ccc(F)cc1)C1CCC(CNC(=O)COC2CCCCC2N(C)S(=O)(=O)c2ccc(Cl)c(Cl)c2)CC1 (stereo not shown) [Example 359] | 42% | −4% |
| CN(C)C(c1ccc(F)cc1)C1CCC(NC(=O)COCCN(C)S(=O)(=O)c2ccc(OC(F)(F)F)cc2)CC1 (stereo not shown) [Example 361] | 3% | 31% |
| Cc1ccc(S(=O)(=O)N(C)CCOCC(=O)NCC2CCC(C(c3ccc(F)cc3)N(C)C)CC2)cc1 (stereo not shown) [Example 362] | 7% | 3% |
